Measured values as given in ChEMBL document CHEMBL5506053, “Explorations of Agonist Selectivity for the α9* nAChR with Novel Substituted Carbamoyl/Amido/Heteroaryl Dialkylpiperazinium Salts and Their Therapeutic Implications in Pain and Inflammation” (J Med Chem, 2024).
Active and inactive are the calls of the source.

Columns and labels:
PBMC [1] = experiment: Inhibition of ATP-mediated IL-1beta release in LPS primed BzATP induced human PBMC cells at 100 fM primed with LPS for 3 hrs followed by BzATP and compound addition for 30 mins by ELISA; assay type: functional, cell-based
[2] = Apparent permeability across basolateral to apical side in human Caco-2 cells at pH 5 at 5 ug/ml measured after 2 hrs by UPLC-MS/MS analysis; assay type: ADME, cell-based; settings: caco-2, pH 5, 2 h, dose 5 µg/ml
[3] = Apparent permeability across apical to basolateral side in human Caco-2 cells at pH 6.8 at 5 ug/ml measured after 2 hrs by UPLC-MS/MS analysis; assay type: ADME, cell-based; settings: caco-2, pH 6.8, 2 h, dose 5 µg/ml
[4] = biological target: Neuronal acetylcholine receptor; alpha9/alpha10 (Homo sapiens) (UniProt Q9UGM1+Q9GZZ6); experiment: Agonist activity at human alpha9alpha10 nAChR expressed as xenopus laevis oocytes assessed as increase in receptor desensitization by measuring fold change in maximum response (Imax) measured after 120 secs by two-electrode voltage-clamp electrophysiology method relative to acetylcholine; assay type: cell-based; settings: Oocyte, filed as agonist, time 120.0 sec
[5] = biological target: T1, Neuronal acetylcholine receptor subunit alpha-7 (Homo sapiens, UniProt P36544); experiment: Partial agonist activity at human alpha7 nAChR expressed as xenopus laevis oocytes assessed as increase in receptor desensitization by measuring fold change in maximum response (Imax) measured after 120 secs by two-electrode voltage-clamp electrophysiology method relative to acetylcholine; assay type: cell-based; settings: Oocyte, filed as partial agonist, time 120.0 sec
T1 sequence (P36544 whole entry): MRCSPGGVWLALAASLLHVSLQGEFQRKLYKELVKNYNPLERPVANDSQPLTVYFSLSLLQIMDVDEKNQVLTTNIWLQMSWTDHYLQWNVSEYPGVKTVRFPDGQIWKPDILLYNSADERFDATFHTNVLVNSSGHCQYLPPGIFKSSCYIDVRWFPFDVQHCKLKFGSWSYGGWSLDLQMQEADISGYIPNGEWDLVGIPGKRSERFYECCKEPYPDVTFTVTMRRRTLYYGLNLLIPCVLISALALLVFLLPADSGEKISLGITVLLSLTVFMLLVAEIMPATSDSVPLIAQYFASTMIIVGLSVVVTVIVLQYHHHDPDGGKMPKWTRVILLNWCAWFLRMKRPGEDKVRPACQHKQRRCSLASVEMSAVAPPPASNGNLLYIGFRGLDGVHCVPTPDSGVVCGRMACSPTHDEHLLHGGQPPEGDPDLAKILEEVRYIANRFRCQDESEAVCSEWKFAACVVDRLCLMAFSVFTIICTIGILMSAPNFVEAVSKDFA

Oocyte [6] = experiment: Agonist activity at mouse muscle alpha1beta1epsilondelta nAChR expressed in xenopus laevis oocytes at 30 uM measured after 120 secs by two-electrode voltage-clamp electrophysiology method relative to control; assay type: cell-based; settings: time 120.0 sec
[7] = biological target: Neuronal acetylcholine receptor subunit alpha-9 (Homo sapiens, UniProt Q9UGM1); experiment: Agonist activity at human alpha9 nAChR expressed as xenopus laevis oocytes assessed as increase in receptor desensitization by measuring fold change in maximum response (Imax) measured after 120 secs by two-electrode voltage-clamp electrophysiology method relative to acetylcholine; assay type: cell-based; settings: Oocyte, filed as agonist, time 120.0 sec
Chain of Neuronal acetylcholine receptor subunit alpha-9 (Q9UGM1 whole entry): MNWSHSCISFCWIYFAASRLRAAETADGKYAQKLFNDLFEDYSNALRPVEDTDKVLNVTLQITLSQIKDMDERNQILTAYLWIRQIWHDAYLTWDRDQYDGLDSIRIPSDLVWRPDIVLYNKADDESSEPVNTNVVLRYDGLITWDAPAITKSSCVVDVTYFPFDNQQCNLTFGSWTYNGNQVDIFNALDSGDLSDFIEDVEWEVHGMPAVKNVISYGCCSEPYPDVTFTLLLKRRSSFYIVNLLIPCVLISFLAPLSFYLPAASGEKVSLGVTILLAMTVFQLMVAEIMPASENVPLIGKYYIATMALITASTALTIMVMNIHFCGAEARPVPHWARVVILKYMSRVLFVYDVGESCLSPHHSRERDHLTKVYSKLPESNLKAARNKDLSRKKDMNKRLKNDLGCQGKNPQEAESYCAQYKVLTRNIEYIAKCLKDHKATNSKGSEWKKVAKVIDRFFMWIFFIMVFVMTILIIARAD

[8] = biological target: T2, Neuronal acetylcholine receptor; alpha4/beta2 (Homo sapiens) (UniProt P17787+P43681); experiment: Agonist activity at human alpha4beta2 nAChR expressed in xenopus laevis oocytes at 30 uM measured after 120 secs by two-electrode voltage-clamp electrophysiology method relative to control; assay type: cell-based; settings: Oocyte, time 120.0 sec
[9] = Apparent permeability across basolateral to apical side in human Caco-2 cells at pH 6.8 at 5 ug/ml measured after 2 hrs by UPLC-MS/MS analysis; assay type: ADME, cell-based; settings: caco-2, pH 6.8, 2 h, dose 5 µg/ml
[10] = biological target: T3, Neuronal acetylcholine receptor; alpha3/beta4 (Homo sapiens) (UniProt P30926+P32297); experiment: Inhibition of acetylcholine induced response in human alpha3beta4 nAChR expressed in xenopus laevis oocytes assessed as fold change at 100 uM preincubated with 3 uM acetylcholine followed by compound administration for 12 sec and measured 181 sec post washout by two-electrode voltage-clamp electrophysiology method relative to acetylcholine alone; assay type: cell-based; settings: Oocyte
[11] = biological target: T1, Neuronal acetylcholine receptor subunit alpha-7; experiment: Agonist activity at human alpha7 nAChR expressed as xenopus laevis oocytes assessed as increase in receptor desensitization by measuring fold change in peak current response at 30 uM incubated for 120 secs presence of PNU-120596 by two-electrode voltage-clamp electrophysiology method relative to acetylcholine; assay type: cell-based; settings: Oocyte, filed as agonist, time 120.0 sec
Mus musculus [12] = experiment: Antinociceptive activity in sham-treated C57BL/6J mouse model assessed as effect on von Frey response at 20 mg/kg, ip measured after 1 to 72 hrs; assay type: functional, organism-based; settings: time 1-72 hrs
[13] = Apparent permeability across apical to basolateral side in human Caco-2 cells at pH 5 at 5 ug/ml measured after 2 hrs by UPLC-MS/MS analysis; assay type: ADME, cell-based; settings: caco-2, pH 5, 2 h, dose 5 µg/ml
Oocyte [14] = experiment: Inhibition of acetylcholine induced response in mouse muscle alpha1beta1epsilondelta nAChR expressed in xenopus laevis oocytes assessed as fold change at 30 uM preincubated with 3 uM acetylcholine followed by compound administration for 12 sec and measured 181 sec post washout by two-electrode voltage-clamp electrophysiology method relative to acetylcholine alone; assay type: cell-based
[15] = Metabolic stability in pooled BALB/c mouse plasma at 1 uM measured after 0 to 120 mins by UPLC-MS/MS analysis; assay type: ADME, cell-free; settings: time 0-120 min
[16] = biological target: T2, Neuronal acetylcholine receptor; alpha4/beta2 (Homo sapiens); experiment: Inhibition of acetylcholine induced response in human alpha4beta2 nAChR expressed in xenopus laevis oocytes assessed as fold change at 30 uM preincubated with 3 uM acetylcholine followed by compound administration for 12 sec and measured 181 sec post washout by two-electrode voltage-clamp electrophysiology method relative to acetylcholine alone; assay type: cell-based; settings: Oocyte
[17] = Apparent permeability across apical to basolateral side in human Caco-2 cells at pH 7.4 at 5 ug/ml measured after 2 hrs by UPLC-MS/MS analysis; assay type: ADME, cell-based; settings: caco-2, pH 7.4, 2 h, dose 5 µg/ml
[18] = Toxicity in C57BL/6J mouse assessed as effect on locomotor activity at 20 mg/kg, ip measured after 6 hrs; settings: in vivo
Mus musculus [19] = experiment: Antiinflammatory activity in CFA-treated C57BL/6J mouse model assessed as reduction in paw edema at 20 mg/kg, ip measured after 6 hrs
Mus musculus [20] = experiment: Antinociceptive activity in complete freund's adjuvant induced inflammatory pain in C57BL/6J mouse model assessed as increase in mechanical pain threshold at 20 mg/kg, ip pretreated with CFA for 3 days followed by compound treatment and measured after 1 to 72 hrs; assay type: functional, organism-based; settings: time 1-72 hrs
THP-1 [21] = experiment: Cytotoxicity against monocytic human THP-1 cells assessed as effect on lactate dehydrogenase activity in supernatant; assay type: toxicity, cell-based
[22] = Metabolic stability in pooled BALB/c mouse plasma assessed as compound remaining at 1 uM measured after 0 to 120 mins by UPLC-MS/MS analysis; assay type: ADME, cell-free; settings: time 0-120 min
[23] = Plasma protein binding in human; assay type: ADME, cell-free
[24] = biological target: T3, Neuronal acetylcholine receptor; alpha3/beta4 (Homo sapiens); experiment: Agonist activity at human alpha3beta4 nAChR expressed in xenopus laevis oocytes at 100 uM measured after 120 secs by two-electrode voltage-clamp electrophysiology method relative to control; assay type: cell-based; settings: Oocyte, time 120.0 sec
[25] = Apparent permeability across basolateral to apical side in human Caco-2 cells at pH 7.4 at 5 ug/ml measured after 2 hrs by UPLC-MS/MS analysis; assay type: ADME, cell-based; settings: caco-2, pH 7.4, 2 h, dose 5 µg/ml
THP-1 [26] = experiment: Induction of IL-1beta release in LPS primed monocytic human THP-1 cells at 10 uM primed with LPS for 5 hrs followed by compound addition and further incubated for 40 mins by ELISA; assay type: functional, cell-based
PBMC [27] = experiment: Inhibition of ATP-mediated IL-1beta release in LPS primed BzATP induced human PBMC cells at 100 uM primed with LPS for 3 hrs followed by BzATP and compound addition for 30 mins by ELISA; assay type: functional, cell-based
Mus musculus [28] = experiment: Antinociceptive activity in complete freund's adjuvant induced inflammatory pain in alpha7 nAChR knockout C57BL/6J mouse model assessed as increase in mechanical pain threshold at 10 mg/kg, ip pretreated with CFA for 3 days followed by compound treatment and measured after 6 hrs; assay type: functional, organism-based
Mus musculus [29] = experiment: Antiinflammatory activity in CFA-treated C57BL/6J mouse model assessed as reduction in paw edema at 10 mg/kg, ip measured after 6 hrs
Mus musculus [30] = experiment: Antinociceptive activity in complete freund's adjuvant induced inflammatory pain in C57BL/6J mouse model assessed as increase in mechanical pain threshold at 2 mg/kg, ip pretreated with CFA for 3 days followed by compound treatment and measured after 6 to 24 hrs; assay type: functional, organism-based; settings: time 6-24 hrs
Mus musculus [31] = experiment: Antinociceptive activity in complete freund's adjuvant induced inflammatory pain in C57BL/6J mouse model assessed as increase in mechanical pain threshold at 10 mg/kg, ip pretreated with CFA for 3 days followed by compound treatment and measured after 5 days; assay type: functional, organism-based; settings: time 5.0 day
[32] = Toxicity in C57BL/6J mouse assessed as effect on locomotor activity at 10 mg/kg, ip measured after 6 hrs; assay type: organism-based; settings: in vivo
Mus musculus [33] = experiment: Antinociceptive activity in complete freund's adjuvant induced inflammatory pain in C57BL/6J mouse model assessed as increase in mechanical pain threshold at 10 mg/kg, ip pretreated with CFA for 3 days followed by compound treatment and measured after 1 to 24 hrs; assay type: functional, organism-based; settings: time 1-24 hrs
Mus musculus [34] = experiment: Antinociceptive activity in complete freund's adjuvant induced inflammatory pain in C57BL/6J mouse model assessed as increase in mechanical pain threshold at 10 mg/kg, ip pretreated with CFA for 3 days followed by compound treatment and measured after 72 hrs; assay type: functional, organism-based
[35] = biological target: T1, Neuronal acetylcholine receptor subunit alpha-7; experiment: Agonist activity at human alpha7 nAChR expressed as xenopus laevis oocytes assessed as increase in receptor desensitization by measuring fold change in maximum response (Imax) measured after 120 secs by two-electrode voltage-clamp electrophysiology method relative to acetylcholine; assay type: cell-based; settings: Oocyte, filed as agonist, time 120.0 sec
Mus musculus [36] = experiment: Antinociceptive activity in sham-treated C57BL/6J mouse model assessed as effect on von Frey response at 10 mg/kg, ip measured after 5 days; assay type: functional, organism-based; settings: time 5.0 day
Mus musculus [37] = experiment: Antinociceptive activity in complete freund's adjuvant induced inflammatory pain in C57BL/6J mouse model harboring wild type alpha7 nAChR assessed as increase in mechanical pain threshold at 10 mg/kg, ip pretreated with CFA for 3 days followed by compound treatment and measured after 6 hrs; assay type: functional, organism-based

SMILES | Papp [2] | Papp [3] | fold change (FC) [4] | Activity (Oocyte [6]) [%] | fold change (FC) [7] | Activity [8] [%] | Papp [9] | fold change (FC) [10] | fold change (FC) [11] | Papp [13] | fold change (FC) (Oocyte [14]) | Stability [15] | fold change (FC) [16] | Papp [17] | Activity (THP-1 [21]) | Stability [22] [%] | PPB [23] [%] | Activity [24] [%] | Papp [25] | Activity (THP-1 [26]) | other results
CC[N+]1(C)CCN(c2ccc(C(=O)Nc3cccc(C)n3)cc2)CC1.[I-] | 1.9 10^-6 cm/s | 2.2 10^-6 cm/s | 0.92 | < 1 | 1.19 | < 1 | 2.6 10^-6 cm/s | 0.849 | 0.13 | 1.9 10^-6 cm/s | 0.413 | Stable | 0.858 | 2.2 10^-6 cm/s | Non-Toxic | > 90 | 32 | < 1 | 2.9 10^-6 cm/s | inactive | inhibition (PBMC [1]): Active; fold change (FC) [5]: 0.4; Activity (Mus musculus [12]): inactive; Activity [18]: Non-Toxic; Activity (Mus musculus [19]): Active; Activity (Mus musculus [20]): Active; inhibition (PBMC [27]): inactive
CC[N+]1(C)CCN(c2ccc(NC(=O)c3cccc(C)n3)cc2)CC1.[I-] | 2.9 10^-6 cm/s | 2.8 10^-6 cm/s | 1.04 | < 1 | 1.01 | < 1 | 3 10^-6 cm/s | 0.659 | 111 | 2.5 10^-6 cm/s | 0.558 | Stable | 1.05 | 2.4 10^-6 cm/s | Non-Toxic | > 90 | 54 | < 1 | 3.1 10^-6 cm/s | inactive | Activity (Mus musculus [28]): Active; Activity (Mus musculus [29]): Active; Activity (Mus musculus [30]): Active; Activity (Mus musculus [31]): Active; Activity [32]: Non-Toxic; Activity (Mus musculus [33]): Active; Activity (Mus musculus [34]): inactive; fold change (FC) [35]: 0.41; Activity (Mus musculus [36]): inactive; Activity (Mus musculus [37]): Active
